Data published in publication PMC8807399, “Synthesis, Characterization, and in vivo Evaluation of a Novel Potent Autotaxin-Inhibitor” (Frontiers in Pharmacology, 2022).
Converted amounts (≈) assume the structure as drawn.

How the values were obtained:
[1] = tested on: total basal plasma LPA; test: Plasma LPA profile in rat (PK/PD), basal LPA; assay type: in vivo
Experimental: Plasma samples were collected in triplicates at 0, 1, 3, 6, and 24 h and were added to heparinated tubes and kept at 0°C until further processing. Sampling and immediate processing at 0°C is crucial for the measurements of basal levels, since at higher temperatures, LPA is produced rapidly according to the ATX activity in the sample. One aliquot was used to determine basal levels of LPAs 16:0, 18:0, 18:1, and 20:4 as well as exposure of 13 by LC-MS/MS. A detailed method for LPA analysis is described in the Supplementary Material Section 1.3. The other 2 aliquots were used to determine ATX activity by incubation of the sample at 37°C for 4 h, followed again by analysis of LPA levels in the same way as for the basal LPA levels. LPA profiles were analyzed using MS Excel (Microsoft Corporation).
Therefore, modulation of total basal LPA was largely driven by modulation of LPA 20:4 (Figure 2A).

[2] = tested on: ML3R; test: Off-target screen ML3R; details: 10 µM; single point, duplicates
[3] = Glutathione addition screening; assay type: in vitro ADME; details: human liver microsomes + NADPH + GSH
Experimental: All sample handling was performed based on a 96-well plate format using an automated pipetting system. The test compounds, positive controls (diclofenac, troglitazone, nefazodone, 4-[[1-(4-fluorophenyl)-2-methyl-1H-imidazol-4-yl]ethynyl]-2-methylpyridine) and solvent control (DMSO) were incubated with human liver microsomes supplemented with NADPH and reduced GSH. Stable GSH conjugates whose production can be assumed to be the result of chemically reactive metabolites were detected using a quadrupole time of flight mass spectrometer run in untargeted full scan accurate mass MSE mode (Waters Xevo G1 QTOFMSE; Waters GmbH, Eschborn, Germany). This generic GSH adduct detection method and the assay workflow are taking advantage of the specific fragmentation behavior of the peptide moiety upon collision induced dissociation of GSH adducts and so are largely independent of the conjugate (“X”) itself.

[4] = target: T1, MAO-B (Homo sapiens, UniProt P27338); test: Off-target screen MAO-B; assay type: biochemical; details: 10 µM; single point, duplicates
T1 construct: purchased Eurofins CEREP SA

[5] = target: T2, Dopamine D2 receptor (Homo sapiens, UniProt P14416); test: Off-target screen Dopamine D2; assay type: binding; details: 10 µM; single point, duplicates
T2 construct: purchased Eurofins CEREP SA

[6] = target: T3, PPARγ (Homo sapiens, UniProt P37231); test: Off-target screen PPARγ, antagonist mode; assay type: cell-based; details: 10 µM, single point, duplicates
T3 construct: purchased Eurofins CEREP SA
T3 sequence (P37231 whole entry): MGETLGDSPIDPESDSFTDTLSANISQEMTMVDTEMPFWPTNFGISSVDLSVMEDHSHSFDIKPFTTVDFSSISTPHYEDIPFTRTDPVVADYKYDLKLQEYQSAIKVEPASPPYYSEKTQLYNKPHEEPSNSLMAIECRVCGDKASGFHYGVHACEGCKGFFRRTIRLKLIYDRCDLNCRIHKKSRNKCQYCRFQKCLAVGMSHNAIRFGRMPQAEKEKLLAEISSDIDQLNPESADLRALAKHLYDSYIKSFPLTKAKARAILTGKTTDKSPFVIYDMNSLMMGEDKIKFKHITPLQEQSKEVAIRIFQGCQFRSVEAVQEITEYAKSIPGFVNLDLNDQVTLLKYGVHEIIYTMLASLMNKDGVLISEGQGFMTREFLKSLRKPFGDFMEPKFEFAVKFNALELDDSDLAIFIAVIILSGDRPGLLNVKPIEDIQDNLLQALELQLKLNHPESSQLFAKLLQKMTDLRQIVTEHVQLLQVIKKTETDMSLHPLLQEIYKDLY

[7] = Artificial membrane permeability assay; assay type: in vitro ADME; details: PAMPA, read-out: Permeability Pe
Experimental: The assay was performed in an automated fashion on 96-well microplates. The permeation of drugs was measured using a “sandwich” construction: A filter-plate was coated with phospholipids (membrane) and placed into a donor compartment containing a compound/buffer solution. Finally, the top of filter-plate was filled with buffer solution (acceptor). Donor concentration was measured at t-start (reference) and compared with the donor and acceptor concentration after a certain time (t-end) to calculate the extent of passage of the compound through the membrane. The main readout of the assay was the permeability value Pe expressed in 10^–6 * cm/s. Secondary readouts determined were the amount of compound in the donor and acceptor compartments as well as the retention in the membrane. Depending on the permeation rate and the membrane retention the compounds were classified as low (Pe < 0.2 and membrane < 20%) or medium and high (Pe ≥ 0.2 or Pe < 0.2 and membrane ≥ 20%). Each sample was measured in triplicate and a standard deviation was determined for the permeation constant Pe.

[8] = target: T4, GSK-3A (Homo sapiens, UniProt P49840); test: Off-target screen GSK-3A; assay type: biochemical; details: 10 µM; single point, duplicates
T4 construct: purchased Eurofins CEREP SA

[9] = target: T5, MAO-A (Homo sapiens, UniProt P21397); test: Off-target screen MAO-A; assay type: biochemical; details: 10 µM; single point, duplicates
T5 construct: purchased Eurofins CEREP SA
T5 sequence (P21397 whole entry): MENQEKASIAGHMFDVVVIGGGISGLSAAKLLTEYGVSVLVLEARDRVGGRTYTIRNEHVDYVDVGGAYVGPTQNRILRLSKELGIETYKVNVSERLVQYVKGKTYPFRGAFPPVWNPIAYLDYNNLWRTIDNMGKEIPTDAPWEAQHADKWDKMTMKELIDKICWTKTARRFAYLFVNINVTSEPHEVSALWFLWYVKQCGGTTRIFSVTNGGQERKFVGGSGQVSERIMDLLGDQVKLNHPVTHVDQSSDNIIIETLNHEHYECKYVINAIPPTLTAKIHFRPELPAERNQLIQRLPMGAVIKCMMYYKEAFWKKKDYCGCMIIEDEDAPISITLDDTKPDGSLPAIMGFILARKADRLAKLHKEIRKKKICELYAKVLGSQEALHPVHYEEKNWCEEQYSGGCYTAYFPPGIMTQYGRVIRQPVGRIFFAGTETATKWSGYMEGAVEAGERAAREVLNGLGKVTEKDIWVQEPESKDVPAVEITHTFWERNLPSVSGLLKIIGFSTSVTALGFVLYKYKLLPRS

[10] = target: T6, Carbonic anhdrase II (Homo sapiens, UniProt P00918); test: Off-target screen Carbonic anhydrase II; assay type: biochemical; details: 10 µM; single point, duplicates
T6 construct: purchased Eurofins CEREP SA

[11] = target: Glycine receptor (strychnine insensitive) (Rattus norvegicus, UniProt P35439); test: Off-target screen Glycine receptor (strychnine insensitive); assay type: binding; details: 10 µM; single point, duplicates
[12] = target: T7, ADAM 17 (Homo sapiens, UniProt P78536); test: Off-target screen ADAM 17; assay type: biochemical; details: 10 µM; single point, duplicates
T7 construct: purchased Eurofins CEREP SA

[13] = target: T8, Alpha2A-adrenoreceptor (Homo sapiens, UniProt P08913); test: Off-target screen Alpha2A-adrenoreceptor; assay type: binding; details: 10 µM; single point, duplicates
T8 construct: purchased Eurofins CEREP SA
T8 sequence (P08913 whole entry): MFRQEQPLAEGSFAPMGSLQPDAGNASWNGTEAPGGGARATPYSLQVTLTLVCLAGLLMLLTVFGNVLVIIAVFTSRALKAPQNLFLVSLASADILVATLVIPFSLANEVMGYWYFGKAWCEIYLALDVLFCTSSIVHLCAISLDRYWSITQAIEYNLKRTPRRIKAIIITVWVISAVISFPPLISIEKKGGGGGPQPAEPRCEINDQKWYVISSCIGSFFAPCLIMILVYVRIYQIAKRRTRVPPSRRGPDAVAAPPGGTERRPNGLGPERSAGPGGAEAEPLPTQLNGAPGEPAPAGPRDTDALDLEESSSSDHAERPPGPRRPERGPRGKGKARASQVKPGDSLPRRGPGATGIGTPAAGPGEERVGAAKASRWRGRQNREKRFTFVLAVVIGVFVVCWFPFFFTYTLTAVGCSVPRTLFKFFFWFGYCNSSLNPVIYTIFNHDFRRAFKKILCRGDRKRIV

[14] = target: T9, Somatostatin receptor 4 (Homo sapiens, UniProt P31391); test: Off-target screen Somatostatin receptor 4; assay type: binding; details: 10 µM; single point, duplicates
T9 construct: purchased Eurofins CEREP SA
T9 sequence (P31391 whole entry): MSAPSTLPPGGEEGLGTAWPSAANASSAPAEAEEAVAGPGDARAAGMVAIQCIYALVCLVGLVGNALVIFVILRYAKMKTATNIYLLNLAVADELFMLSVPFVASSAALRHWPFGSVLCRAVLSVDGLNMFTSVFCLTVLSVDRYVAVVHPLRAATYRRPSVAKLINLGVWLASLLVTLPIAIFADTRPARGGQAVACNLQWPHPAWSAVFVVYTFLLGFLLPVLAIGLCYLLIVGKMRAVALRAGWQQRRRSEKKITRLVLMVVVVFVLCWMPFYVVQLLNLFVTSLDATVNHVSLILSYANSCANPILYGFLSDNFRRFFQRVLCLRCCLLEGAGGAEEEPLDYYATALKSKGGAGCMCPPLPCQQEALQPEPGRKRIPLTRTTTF

[15] = target: T10, PDE-5 (Homo sapiens, UniProt O76074); test: Off-target screen PDE-5; assay type: biochemical; details: 10 µM; single point, duplicates
T10 construct: purchased Eurofins CEREP SA

[16] = target: T11, ZAP70 (Homo sapiens, UniProt P43403); test: Off-target screen ZAP70; assay type: biochemical; details: 10 µM; single point, duplicates
T11 construct: purchased Eurofins CEREP SA
T11 sequence (P43403 whole entry): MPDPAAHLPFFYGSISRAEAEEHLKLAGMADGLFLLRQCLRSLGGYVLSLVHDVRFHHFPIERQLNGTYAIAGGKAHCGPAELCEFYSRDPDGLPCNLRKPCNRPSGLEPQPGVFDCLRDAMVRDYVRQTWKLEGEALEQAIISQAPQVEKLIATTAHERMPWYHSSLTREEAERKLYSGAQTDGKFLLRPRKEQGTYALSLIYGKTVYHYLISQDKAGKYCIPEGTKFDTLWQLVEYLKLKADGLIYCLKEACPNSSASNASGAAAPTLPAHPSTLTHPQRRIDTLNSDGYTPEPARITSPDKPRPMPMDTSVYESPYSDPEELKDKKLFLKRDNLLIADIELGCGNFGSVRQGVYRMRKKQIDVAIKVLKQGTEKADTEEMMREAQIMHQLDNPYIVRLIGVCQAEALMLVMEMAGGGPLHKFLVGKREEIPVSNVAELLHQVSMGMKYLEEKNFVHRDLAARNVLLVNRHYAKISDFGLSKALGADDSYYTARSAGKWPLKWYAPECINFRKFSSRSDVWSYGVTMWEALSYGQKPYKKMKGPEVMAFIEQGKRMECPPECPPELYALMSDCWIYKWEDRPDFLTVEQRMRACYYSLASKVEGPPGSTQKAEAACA

[17] = target: T12, CDK2 (Homo sapiens, UniProt P24941); test: Off-target screen CDK2; assay type: biochemical; details: 10 µM; single point, duplicates
T12 construct: purchased Eurofins CEREP SA

[18] = target: T13, GSK-3B (Homo sapiens, UniProt P49841); test: Off-target screen GSK-3B; assay type: biochemical; details: 10 µM; single point, duplicates
T13 construct: purchased Eurofins CEREP SA

[19] = target: T14, Angiotensin II receptor 1 (Homo sapiens, UniProt P30556); test: Off-target screen Angiotensin II receptor 1; assay type: binding; details: 10 µM; single point, duplicates
T14 construct: purchased Eurofins CEREP SA
T14 sequence (P30556 whole entry): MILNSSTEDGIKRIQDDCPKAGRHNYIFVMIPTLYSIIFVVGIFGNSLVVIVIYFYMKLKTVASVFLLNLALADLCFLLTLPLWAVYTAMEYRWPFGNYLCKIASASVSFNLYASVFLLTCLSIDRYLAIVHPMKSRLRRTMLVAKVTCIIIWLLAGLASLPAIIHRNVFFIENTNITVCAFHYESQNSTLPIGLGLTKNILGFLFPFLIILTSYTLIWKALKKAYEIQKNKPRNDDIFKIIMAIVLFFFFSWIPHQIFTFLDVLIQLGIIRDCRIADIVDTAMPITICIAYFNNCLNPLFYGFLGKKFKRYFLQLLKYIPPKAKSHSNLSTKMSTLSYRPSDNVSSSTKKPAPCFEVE

[20] = tested on: HIV-1 protease; test: Off-target screen HIV-1 protease; details: 10 µM; single point, duplicates
[21] = target: T15, LPA2 receptor (Homo sapiens, UniProt Q9HBW0); test: Off-target screen LPA2 receptor, agonist mode; assay type: cell-based; details: 10 µM, single point, duplicates
T15 construct: purchased Eurofins CEREP SA

[22] = target: T16, 5HT2B (Homo sapiens, UniProt P41595); test: Off-target screen 5HT2B; assay type: binding; details: 10 µM; single point, duplicates
T16 construct: purchased Eurofins CEREP SA
T16 sequence (P41595 whole entry): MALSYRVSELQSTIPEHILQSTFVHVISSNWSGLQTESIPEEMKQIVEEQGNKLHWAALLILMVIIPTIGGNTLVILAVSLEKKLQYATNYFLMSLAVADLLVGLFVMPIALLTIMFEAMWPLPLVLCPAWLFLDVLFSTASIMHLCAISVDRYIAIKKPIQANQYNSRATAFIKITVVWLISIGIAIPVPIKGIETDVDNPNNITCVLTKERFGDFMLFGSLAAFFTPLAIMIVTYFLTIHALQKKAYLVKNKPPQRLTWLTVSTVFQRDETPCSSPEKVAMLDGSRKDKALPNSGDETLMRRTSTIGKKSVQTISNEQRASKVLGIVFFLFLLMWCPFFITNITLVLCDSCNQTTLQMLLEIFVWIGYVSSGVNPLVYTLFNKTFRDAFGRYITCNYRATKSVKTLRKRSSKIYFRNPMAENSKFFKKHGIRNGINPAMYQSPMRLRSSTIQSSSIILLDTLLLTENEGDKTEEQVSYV

[23] = target: T17, MMP-9 (Homo sapiens, UniProt P14780); test: Off-target screen MMP-9; assay type: biochemical; details: 10 µM; single point, duplicates
T17 construct: purchased Eurofins CEREP SA

[24] = target: T18, mu opioid receptor (Homo sapiens, UniProt P35372); test: Off-target screen mu opioid receptor; assay type: binding; details: 10 µM; single point, duplicates
T18 construct: purchased Eurofins CEREP SA
T18 sequence (P35372 whole entry): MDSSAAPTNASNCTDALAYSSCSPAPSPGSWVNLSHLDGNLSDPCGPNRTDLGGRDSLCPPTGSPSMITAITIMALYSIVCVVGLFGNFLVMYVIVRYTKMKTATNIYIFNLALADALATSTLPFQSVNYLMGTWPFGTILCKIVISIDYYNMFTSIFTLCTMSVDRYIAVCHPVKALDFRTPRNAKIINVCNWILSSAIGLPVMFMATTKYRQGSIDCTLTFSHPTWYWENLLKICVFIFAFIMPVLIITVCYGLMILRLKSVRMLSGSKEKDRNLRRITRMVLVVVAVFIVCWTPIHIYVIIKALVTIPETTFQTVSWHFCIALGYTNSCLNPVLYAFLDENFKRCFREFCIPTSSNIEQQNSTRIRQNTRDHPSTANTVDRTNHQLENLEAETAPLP

[25] = target: T19, LPA3 receptor (Homo sapiens, UniProt Q9UBY5); test: Off-target screen LPA3 receptor, agonist mode; assay type: cell-based; details: 10 µM, single point, duplicates
T19 construct: purchased Eurofins CEREP SA
T19 sequence (Q9UBY5 whole entry): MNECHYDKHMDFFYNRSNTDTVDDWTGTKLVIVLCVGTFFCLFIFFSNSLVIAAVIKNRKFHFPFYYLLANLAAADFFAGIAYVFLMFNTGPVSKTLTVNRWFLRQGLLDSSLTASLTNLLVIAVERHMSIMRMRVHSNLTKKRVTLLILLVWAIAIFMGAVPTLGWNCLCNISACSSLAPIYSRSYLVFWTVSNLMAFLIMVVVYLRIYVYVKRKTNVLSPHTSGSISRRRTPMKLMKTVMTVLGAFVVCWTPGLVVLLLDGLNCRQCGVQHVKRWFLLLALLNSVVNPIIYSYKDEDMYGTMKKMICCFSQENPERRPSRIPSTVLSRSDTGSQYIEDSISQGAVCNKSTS

[26] = target: T3, PPARγ; test: Off-target screen PPARγ, agonist mode; assay type: cell-based; details: 10 µM, single point, duplicates
[27] = target: T20, S1P1 (Homo sapiens, UniProt P21453); test: Off-target screen S1P1, agonist mode; assay type: cell-based; details: 10 µM, single point, duplicates
T20 construct: purchased Eurofins CEREP SA
T20 sequence (P21453 whole entry): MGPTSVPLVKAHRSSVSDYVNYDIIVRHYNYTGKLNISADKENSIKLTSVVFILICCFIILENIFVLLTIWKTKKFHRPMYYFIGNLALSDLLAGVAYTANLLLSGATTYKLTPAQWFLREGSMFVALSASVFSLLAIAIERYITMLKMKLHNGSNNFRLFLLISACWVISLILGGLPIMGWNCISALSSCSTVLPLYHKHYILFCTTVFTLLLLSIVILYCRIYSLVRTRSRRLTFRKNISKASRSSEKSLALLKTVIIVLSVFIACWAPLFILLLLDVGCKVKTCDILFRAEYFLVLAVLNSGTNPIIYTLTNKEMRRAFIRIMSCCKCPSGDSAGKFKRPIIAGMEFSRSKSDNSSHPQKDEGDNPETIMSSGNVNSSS

[28] = target: T21, Muscarininc receptor M4 (Homo sapiens, UniProt P08173); test: Off-target screen Muscarinic M4; assay type: binding; details: 10 µM; single point, duplicates
T21 construct: purchased Eurofins CEREP SA
T21 sequence (P08173 whole entry): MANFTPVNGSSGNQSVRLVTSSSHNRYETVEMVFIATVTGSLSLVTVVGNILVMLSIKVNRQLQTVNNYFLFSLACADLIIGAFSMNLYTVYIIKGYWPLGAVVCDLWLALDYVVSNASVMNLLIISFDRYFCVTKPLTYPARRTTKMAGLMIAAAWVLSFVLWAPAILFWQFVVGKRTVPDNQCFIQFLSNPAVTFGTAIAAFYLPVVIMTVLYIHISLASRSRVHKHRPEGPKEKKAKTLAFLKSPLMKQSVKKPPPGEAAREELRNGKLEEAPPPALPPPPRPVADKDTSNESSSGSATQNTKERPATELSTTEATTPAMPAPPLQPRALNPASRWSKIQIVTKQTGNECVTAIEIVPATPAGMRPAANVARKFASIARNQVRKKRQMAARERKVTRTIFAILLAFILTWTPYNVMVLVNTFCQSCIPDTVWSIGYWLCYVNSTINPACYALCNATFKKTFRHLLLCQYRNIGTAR

For `O=C(OCc1ccc(OC(F)(F)F)cc1)N1C[C@@H]2CN(C(=O)c3ccc4[nH]nnc4c3)C[C@H]2C1` [Compound 13, (3aS,6aS)-5-(1H-Benzotriazole-5-carbonyl)-hexahydro-pyrrolo[3,4-c]pyrrole-2-carboxylic acid 4-trifluoromethoxy-benzyl ester], the IC50 ([1]; Rattus norvegicus, free plasma concentration, male Wistar rats, 3, 10, 30 mg/kg po, sum of LPA 16:0, 18:0, 18:1, 20:4, read-out: IC50 for the lowering of total basal LPA) was about 3.2 ng/mL (≈ 6.73 nM), the “Estimated average ATX inhibition” value ([1]; rat, food admix 20 mg/kg, 2-weeks study at steady state, estimated from PK/PD relationship) was over 75% and the “ML3R (h) [% inhib]” value [2] was 48 % inhib. For the same compound, the GSH adducts [3] was “Neg”, the “MAO-B (h) [% inhib]” value [4] was 6 % inhib and the “Dopamine D2 receptor (h) [% inhib]” value [5] was 4 % inhib. For the same compound, the “PPARγ (h), antago. mode [% inhib]” value [6] was 6 % inhib, the Papp [7] was 4.5 ×10⁻⁶ cm/s and the “GSK-3A (h) [% inhib]” value [8] was -11 % inhib. The “MAO-A (h) [% inhib]” value [9] was -1 % inhib, the “Carbonic anhdrase II (h) [% inhib]” value [10] was -6 % inhib and the “Glycine receptor (strychnine insensitive) (r) [% inhib]” value [11] was 17 % inhib. For the same compound, the “ADAM 17 (h) [% inhib]” value [12] was 9 % inhib, the “Alpha2A-adrenoreceptor (h) [% inhib]” value [13] was 3 % inhib and the “Somatostatin receptor 4 (h) [% inhib]” value [14] was 12 % inhib. For the same compound, the “PDE-5 (h) [% inhib]” value [15] was 19 % inhib, the “ZAP70 (h) [% inhib]” value [16] was 9 % inhib and the “CDK2 (h) [% inhib]” value [17] was 0 % inhib. For the same compound, the “GSK-3B (h) [% inhib]” value [18] was -8 % inhib, the “Angiotensin II receptor 1 (h) [% inhib]” value [19] was 14 % inhib and the “HIV-1 protease (h) [% inhib]” value [20] was 0 % inhib. For the same compound, the “LPA2 receptor (h), agonist mode [% pos ctrl]” value [21] was 8 % pos ctrl, the “5HT2B (h) [% inhib]” value [22] was -3 % inhib and the “MMP-9 (h) [% inhib]” value [23] was -22 % inhib. The “mu opioid receptor (h) [% inhib]” value [24] was 15 % inhib, the “LPA3 receptor (h), agonist mode [% pos ctrl]” value [25] was -3 % pos ctrl and the “PPARγ (h), agonist mode [% pos ctrl]” value [26] was 0 % pos ctrl. The “S1P1 (h), agonist mode [% pos ctrl]” value [27] was 5 % pos ctrl and the “Muscarininc receptor M4 (h) [% inhib]” value [28] was -17 % inhib.
